The text below walks through data of PubChem BioAssay AID328 (DTP/NCI, 2004).

“And” between values parts separate entries of the source, which are not always exact repeats. Equal values may be shown once. Toxic doses and inconclusive results are not listed. Residues, ends and D or L forms follow the SMILES beside them. *: point of attachment. Bn = c1ccc(C*)cc1

For the assay, the system named is BDF1 mice, P388 leukemia ip, median survival T/C. Put plainly: NCI In Vivo Anticancer Drug Screen. Data for tumor model P388 Leukemia (intraperitoneal) in B6D2F1 (BDF1) mice. Conditions: endpoint: median survival time, higher = longer survival. Put shortly:
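Transplantable tumour in mice; compound vs vehicle dosing; survival scored; ratio of treated to control reported.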

[1] abbreviates: dose: 12.5 mg/kg/injection, schedule: Q01DX009 (ip), vehicle: saline with Tween-80.
Where [2] appears, read: dose: 50.0 mg/kg/injection, schedule: Q01DX009 (ip), vehicle: saline with Tween-80.
[3] abbreviates: dose: 100.0 mg/kg/injection, schedule: Q01DX009 (ip), vehicle: saline with Tween-80.
Setting [4] is: dose: 25.0 mg/kg/injection, schedule: Q01DX009 (ip), vehicle: saline with Tween-80.
[5] abbreviates: dose: 25.0 mg/kg/injection, schedule: Q04DX003 (ip), vehicle: saline.
Setting [6] is: dose: 50.0 mg/kg/injection, schedule: Q04DX003 (ip), vehicle: saline.
Where [7] appears, read: dose: 100.0 mg/kg/injection, schedule: Q04DX003 (ip), vehicle: saline.
Setting [8] is: dose: 200.0 mg/kg/injection, schedule: Q01DX009 (ip), vehicle: saline.
Setting [9] is: dose: 400.0 mg/kg/injection, schedule: Q01DX009 (ip), vehicle: saline.
Setting [10] is: dose: 400.0 mg/kg/injection, schedule: Q04DX003 (ip), vehicle: saline.
[11] abbreviates: dose: 200.0 mg/kg/injection, schedule: Q04DX003 (ip), vehicle: saline.

For `COc1cc(NS(C)(=O)=O)ccc1Nc1c2ccc(Cl)cc2nc2c(OC)cccc12`, the T/C runs as follows: (dose: 0.8 mg/kg/injection, schedule: Q01DX005 (iv), vehicle: water) 106 % of control; (dose: 0.8 mg/kg/injection, schedule: Q04DX003 (iv), vehicle: water) 105 % of control; (dose: 1.6 mg/kg/injection, schedule: Q01DX005 (iv), vehicle: water) 99 % of control; (dose: 1.6 mg/kg/injection, schedule: Q04DX003 (iv), vehicle: water) 100 % of control; (dose: 3.3 mg/kg/injection, schedule: Q01DX005 (iv), vehicle: water) 114 % of control; (dose: 3.3 mg/kg/injection, schedule: Q04DX003 (iv), vehicle: water) 109 % of control. For the same molecule, the T/C is 124 % of control (dose: 6.5 mg/kg/injection, schedule: Q04DX003 (iv), vehicle: water); 95 % of control under setting [1]; 250 % of control (dose: 26.0 mg/kg/injection, schedule: Q04DX003 (iv), vehicle: water).
`CCCCCCCCCOCC1CO1` (configuration not stated): the T/C by setting is: under setting [2], 111 % of control; under setting [3], 110 % of control; (dose: 200.0 mg/kg/injection, schedule: Q01DX009 (ip), vehicle: saline with Tween-80) 101 % of control.
For the molecule `O=C(NC(=O)c1c(F)cccc1F)Nc1ccc2[nH]ccc2c1`, the T/C runs as follows: under setting [4], 100 % of control; under setting [2], 100 % of control; under setting [3], 93 % of control.
Consider `c1ccc(-c2cscc2-c2ccccc2)cc1`, for which the T/C runs as follows: under setting [5], 97 % of control; (dose: 50.0 mg/kg/injection, schedule: Q01DX009 (ip), vehicle: saline) 93 % of control; under setting [6], 108 % of control; (dose: 100.0 mg/kg/injection, schedule: Q01DX009 (ip), vehicle: saline) 93 % of control; under setting [7], 100 % of control; under setting [8], 101 % of control. Besides, the T/C was 93 % of control under setting [9] and 100 % of control under setting [10].
On to `Cc1nc(N2CC2)nc(N2CC2)c1[N+](=O)[O-]`, for which the T/C by setting is: (dose: 0.62 mg/kg/injection, schedule: Q01DX010 (ip), vehicle: saline) 122 % of control; (dose: 0.63 mg/kg/injection, schedule: Q01DX010 (ip), vehicle: saline) 100 % of control.
For `CC1CN(Cc2cccc(C#N)c2)CC(C)N1` (configuration not stated), the T/C is, setting by setting: (dose: 6.25 mg/kg/injection, schedule: Q01DX009 (ip), vehicle: water) 95 % of control; (dose: 12.5 mg/kg/injection, schedule: Q01DX009 (ip), vehicle: water) 110 % of control; (dose: 25.0 mg/kg/injection, schedule: Q01DX009 (ip), vehicle: water) 101 % of control; (dose: 25.0 mg/kg/injection, schedule: Q04DX003 (ip), vehicle: water) 101 % of control; (dose: 50.0 mg/kg/injection, schedule: Q01DX009 (ip), vehicle: water) 95 % of control; (dose: 50.0 mg/kg/injection, schedule: Q04DX003 (ip), vehicle: water) 100 % of control. Also, the T/C is 110 % of control (dose: 100.0 mg/kg/injection, schedule: Q01DX009 (ip), vehicle: water) and 111 % of control (dose: 100.0 mg/kg/injection, schedule: Q04DX003 (ip), vehicle: water).
For `Cc1c(N=Cc2ccccc2)c(=O)n(-c2ccccc2)n1C`, the T/C (dose: 100.0 mg/kg/injection, schedule: Q01DX009 (ip), vehicle: gum acacia) was 110 % of control; the T/C (dose: 100.0 mg/kg/injection, schedule: Q04DX003 (ip), vehicle: gum acacia) was 88 % of control; the T/C (dose: 200.0 mg/kg/injection, schedule: Q01DX009 (ip), vehicle: gum acacia) was 103 % of control; the T/C (dose: 200.0 mg/kg/injection, schedule: Q04DX003 (ip), vehicle: gum acacia) was 100 % of control; the T/C (dose: 400.0 mg/kg/injection, schedule: Q01DX009 (ip), vehicle: gum acacia) was 92 % of control; the T/C (dose: 400.0 mg/kg/injection, schedule: Q04DX003 (ip), vehicle: gum acacia) was 92 % of control.
With `CC1CN1c1cc(O)c(N2CC2C)cc1O` (configuration not stated), the T/C is 154 % of control (dose: 1.32 mg/kg/injection, schedule: Q01DX009 (ip), vehicle: saline with Tween-80); 208 % of control (dose: 2.0 mg/kg/injection, schedule: Q01DX009 (ip), vehicle: saline with Tween-80); 200 % of control (dose: 2.2 mg/kg/injection, schedule: Q01DX009 (ip), vehicle: saline with Tween-80); 187 % of control (dose: 3.0 mg/kg/injection, schedule: Q01DX009 (ip), vehicle: saline with Tween-80); 265 % of control (dose: 3.3 mg/kg/injection, schedule: Q01DX009 (ip), vehicle: saline with Tween-80); 310 % of control and 204 % of control (dose: 5.0 mg/kg/injection, schedule: Q01DX009 (ip), vehicle: saline with Tween-80). For the same molecule, the T/C by setting is: (dose: 5.0 mg/kg/injection, schedule: Q04DX003 (ip), vehicle: saline with Tween-80) 154 % of control; (dose: 7.5 mg/kg/injection, schedule: Q04DX003 (ip), vehicle: saline with Tween-80) 231 % of control; (dose: 10.0 mg/kg/injection, schedule: Q01DX009 (ip), vehicle: saline with Tween-80) 90 % of control.
For the molecule `CN(CCO)/N=N/c1nc[nH]c1C(N)=O`, the T/C reads like this: (dose: 1.56 mg/kg/injection, schedule: Q01DX009 (ip), vehicle: saline) 95 % of control; (dose: 3.13 mg/kg/injection, schedule: Q01DX009 (ip), vehicle: saline) 100 % of control; (dose: 6.25 mg/kg/injection, schedule: Q01DX009 (ip), vehicle: saline) 100 % of control; (dose: 25.0 mg/kg/injection, schedule: Q01DX009 (ip), vehicle: saline) 92 % of control; under setting [7], 105 % of control; under setting [8], 110 % of control. For the same molecule, the T/C is 100 % of control under setting [11], 100 % of control under setting [9] and 105 % of control under setting [10].
Turning to `Oc1ccc(CNCCNCCNCc2ccc(O)cc2)cc1`, the T/C by setting is: (dose: 12.5 mg/kg/injection, schedule: Q04DX003 (ip), vehicle: saline) 100 % of control; under setting [5], 107 % of control; under setting [6], 109 % of control; under setting [7], 100 % of control; under setting [11], 105 % of control.
Turning to `O=C1CC(c2ccc(Br)cc2)N(c2ccc([As](=O)(O)O)cc2)C1=O` (configuration not stated), the T/C runs as follows: (dose: 3.13 mg/kg/injection, schedule: Q01DX009 (ip), vehicle: saline with Tween-80) 90 % of control; (dose: 6.25 mg/kg/injection, schedule: Q01DX009 (ip), vehicle: saline with Tween-80) 109 % of control; under setting [1], 109 % of control.
Consider `CC(=O)NCCCCCC(=O)O`, for which the T/C runs as follows: (dose: 100.0 mg/kg/injection, schedule: Q01DX009 (ip), vehicle: Klucel (hydroxypropylcellulose) (HPC)) 90 % of control; (dose: 100.0 mg/kg/injection, schedule: Q04DX003 (ip), vehicle: Klucel (hydroxypropylcellulose) (HPC)) 95 % of control; (dose: 200.0 mg/kg/injection, schedule: Q01DX009 (ip), vehicle: Klucel (hydroxypropylcellulose) (HPC)) 90 % of control; (dose: 200.0 mg/kg/injection, schedule: Q04DX003 (ip), vehicle: Klucel (hydroxypropylcellulose) (HPC)) 95 % of control; (dose: 400.0 mg/kg/injection, schedule: Q01DX009 (ip), vehicle: Klucel (hydroxypropylcellulose) (HPC)) 109 % of control; (dose: 400.0 mg/kg/injection, schedule: Q04DX003 (ip), vehicle: Klucel (hydroxypropylcellulose) (HPC)) 109 % of control.
Turning to `COC(=O)C(CC(C)C)NC(=O)C(N)Cc1ccc(OCc2ccccc2)cc1` (configuration not stated) (H-Tyr(Bn)-Leu-OMe; configuration not given here), the T/C is, setting by setting: under setting [1], 105 % of control; under setting [4], 100 % of control; under setting [2], 105 % of control and 120 % of control; (dose: 50.0 mg/kg/injection, schedule: Q04DX003 (ip), vehicle: saline with Tween-80) 105 % of control; under setting [3], 105 % of control; (dose: 100.0 mg/kg/injection, schedule: Q04DX003 (ip), vehicle: saline with Tween-80) 100 % of control.
